Earlier results in article PMC5019575 (European journal of inorganic chemistry, 2015).

Experiments:
di-Fe^III-DF3 = molecular target: T1, di-Fe^III-DF3 (synthetic construct, UniProt Z9XD63LK24); test: initial rates of oxidation, Lineweaver-Burk; format: biochemical; settings: O2 (air), diferric protein, 100 mM HEPES/100 mM NaCl pH 7.0
T1 sequence (Z9XD63LK24 2-49): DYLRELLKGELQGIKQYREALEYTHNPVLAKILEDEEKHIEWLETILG

G4-DFtet = settings: O2 (air), diiron protein, 100 mM HEPES/100 mM NaCl pH 7.0

Structure (SMILES)	Km (di-Fe^III-DF3)	Km (G4-DFtet)
CC(C)(C)c1cc(O)c(O)c(C(C)(C)C)c1 [3,5-DTBC, 3,5-di-tert-butylcatechol]	2090 ± 310 µM	
Nc1ccc(O)cc1 [4-AP, 4-aminophenol]		830 ± 60 µM
Nc1ccc(N)cc1 [PPD, p-phenylenediamine]	8870 ± 2580 µM	
